Reference: patent US8541235B2, “Modified reconstituted basement membrane composition for assay system” (Corning Incorporated, priority 2003, dated 2013)
pEC50, pIC50: −log10 of the molar value. Read-outs that look alike come from different tables or passages of the source.

What was measured:
[1] = tested on: HUVEC tube formation; assay: Endothelial cell tube formation assay, stimulator studies on modified matrix; format: cell-based, human; conditions: modified matrix (inventive), total tube length, n=4
Protocol: (§1) With reference to FIG. 1, angiogenesis stimulators can be evaluated for their ability to enhance HUVEC tube formation using the compositions and cell culturing systems of the present invention. […] The bottom surface of the wells are shown as coated with the modified matrix composition of the present invention. On day 1, a potential angiogenesis stimulator is added to the coated surface, along with endothelial cells in cell medium. […] In inhibitor studies, the potential inhibitor is included in a well, in addition to at least one known stimulator and the endothelial cells in cell medium. After an appropriate incubation period, typically 24 hours at 37° C./5% CO2 (day 2), images of the wells are acquired, and tube length is quantified as a measure of cell tube formation.
Known stimulators were chosen to evaluate the performance of an inventive basement membrane composition vs. a prior basement membrane composition. The chosen stimulators were bFGF and spinosine-1-phosphate (S1P). […]
At the end of each assay, assay medium was removed and plates were washed once with HBSS. […] Total tube length of each well was measured using a revised (from previous) MetaMorph® Journal. Excel data was imported and analyzed using BD Gentest MPM/ADMET Software Program from BD Biosciences Discovery Labware. […]

[2] = tested on: HUVEC tube formation; assay: Endothelial cell tube formation assay, inhibitor studies on modified matrix (tube formation induced by bFGF or S1P); format: cell-based, human; conditions: for pIC50: Homo sapiens, HUVEC; for Effect on S1P induced HUVEC tube formation: S1P 1 μM
Protocol: as §1
Known stimulators were chosen to evaluate the performance of an inventive basement membrane composition vs. a prior basement membrane composition. The chosen stimulators were bFGF and spinosine-1-phosphate (S1P). Coated plates prepared as described above in Example 2 were thawed at about 4° C. for a period of about 4 to 5 hours. The components of the composition were then allowed to polymerize at 37° C., 5% CO2 for approximately 30 minutes immediately before assay setup. For stimulator studies, HUVEC (P3-P5) were harvested at about 70% cell confluence. About 50 μl of cells at 4×10^5/ml in 0.1% FBS/EBM-2 medium supplemented with or without the angiogenesis stimulators were seeded onto 96-well plates containing the pre-solidified (i.e., polymerized) modified reconstituted basement membrane composition (inventive) or a standard Matrigel® matrix (BD Growth Factor Reduced Matrigel® Matrix). The assembled assays were allowed to incubate in a 37° C. incubator with 5% CO2 for approximately 16 to 18 hours. Compounds were dissolved in DMF or water according to manufacturer's instructions.
At the end of each assay, assay medium was removed and plates were washed once with HBSS. 50 μl Calcein AM at 8 μg/ml in HBSS was added to each well and plates were incubated in a 37° C./5% CO2 incubator for 35 minutes followed by washing once in HBSS. Images were acquired with a 2× objective lens on an automated Gen-1 Cell-based Screening System (Universal Imaging Corporation™). Total tube length of each well was measured using a revised (from previous) MetaMorph® Journal. Excel data was imported and analyzed using BD Gentest MPM/ADMET Software Program from BD Biosciences Discovery Labware.
Inhibitor studies were performed as generally described in Example 4, except that for these studies, an inhibitor was included in the assay, in addition to a known stimulator. Data was obtained on the modified matrix (inventive). […] Stimulators, bFGF or S1P, were added to HUVECs at 20 ng/ml and 1 μM, respectively. Suramin of indicated concentrations was added to HUVEC in bFGF or S1P prior to adding the mixtures to each well. Each data point represents the mean+/−standard deviation (n=4).
With reference now to FIG. 5, the effects of inhibitors (SU5402 and Suramin) on HUVEC tube formation induced by stimulators (bFGF and S1P) is shown. Data was obtained on the modified matrix (inventive). Stimulators, bFGF or S1P, were added to HUVECs in EBM-2 containing 0.1% FBS at a final concentration of 20 ng/ml and 1 μM, respectively. Suramin at 15 μM (in medium) or SU5402 at 25 μM (in 0.1% DMF) were added to HUVECs in 0.1% FBS, or bFGF, or S1P, prior to adding the mixtures to the wells. […] Each bar represents the mean+/−standard deviation (n=4).

Compound: CCCCCCCCCCCCC/C=C/[C@@H](O)[C@@H](N)COP(=O)(O)O [S1P, sphinosine-1-phosphate]
- pEC50 ([1]; read-out: EC50 in inducing HUVEC tube formation): 6.50

Compound: Cc1ccc(C(=O)Nc2ccc(S(=O)(=O)O)c3cc(S(=O)(=O)O)cc(S(=O)(=O)O)c23)cc1NC(=O)c1cccc(NC(=O)Nc2cccc(C(=O)Nc3cc(C(=O)Nc4ccc(S(=O)(=O)O)c5cc(S(=O)(=O)O)cc(S(=O)(=O)O)c45)ccc3C)c2)c1 [Suramin]
- pIC50 ([2]; read-out: IC50 of inhibition of tube formation stimulated by S1P): 4.97
- pIC50 ([2]; read-out: IC50 of inhibition of tube formation stimulated by bFGF): 5.14
- Effect on S1P induced HUVEC tube formation ([2]; Suramin at 15 μM (in medium), modified matrix, FIG. 5): inhibited
- Effect on bFGF induced HUVEC tube formation ([2]; Suramin at 15 μM (in medium), bFGF 20 ng/ml, modified matrix, FIG. 5): inhibited

Compound: bFGF: known angiogenesis stimulator; fibroblast growth factor (basic FGF)
- EC50 in inducing HUVEC tube formation [1]: 1.5 ng/mL

Compound: Cc1c[nH]c(/C=C2\C(=O)Nc3ccccc32)c1CCC(=O)O [SU5402]
- Effect on S1P induced HUVEC tube formation ([2]; SU5402 at 25 μM (in 0.1% DMF), modified matrix, FIG. 5): partially inhibited
- Effect on HUVEC tube formation stimulated by bFGF ([2]; SU5402 at 25 μM (in 0.1% DMF), bFGF 20 ng/ml, modified matrix, FIG. 5): completely inhibited
